Results as given in patent US20160264593A1 (priority 2013, published 2016).
Where “and” joins values, the source holds several entries; their conditions need not be identical. Equal entries are not always repeated. Entries after “also recorded” stand apart in the source; their conditions may differ.

Assay: Pharmacokinetic study of 100 (and metabolite endothal) in SD rats, iv; plasma, liver, brain
Conditions: for Endothal brain concentration / Endothal liver concentration / Endothal plasma concentration / concentration at 0.25 h / concentration at 1 h / concentration at 2 h / concentration at 10 h / concentration at 24 h / concentration at 6 h: SD rats; for AUCINF / AUClast / Cmax / Tmax / concentration at 0.25 h / concentration at 1 h / concentration at 2 h / concentration at 10 h / concentration at 24 h / concentration at 6 h: rat, in vivo, iv; for concentration at 0.25 h / concentration at 1 h / concentration at 2 h / concentration at 10 h / concentration at 24 h / concentration at 6 h: Endothal liver concentration
Procedure: 100 was administrated via iv route at 0.5, 1.0 and 1.5 mg/kg into SD rats. The blood, liver and brain tissue samples were collected at predetermined times from rats.
Twelve (12) female SD rats per group were dosed by iv with 100. The rats were fasted overnight prior to dosing, with free access to water. Foods were withheld for 2 hours post-dose. Blood, liver and brain tissue samples in two animals each group were collected at each time point, within 10% of the scheduled time for each time point. Two extra animals were used for analytic method development. Blood (>0.3 mL) were collected via aorta abdominalis in anaesthetic animalsinto tubes containing heparin at 15 min, 1, 2, 6, 10 and 24 hours after iv administration. Liver and brain tissues were collected immediately after animal death. The liver and brain tissues were excised and rinsed with cold saline to avoid blood residual. Upon collection, each sample was placed on ice and the blood samples were subsequently centrifuged (4° C., 11000 rpm, 5 min) to separate plasma. The obtained plasma, liver and brain tissue samples were stored at −70° C. until LC-MS/MS analysis.
AUC0-∞ (AUC/NF) is the area under the plasma concentration-time curve with last concentration extrapolated based on the elimination rate constant.

[1] = 100 iv 0.5 mg/kg, 24 hr, individual

## O=C(O)C1C2CCC(O2)C1C(=O)O (stereo not shown) [Endothal, 7-oxabicyclo[2.2.1]heptane-2,3-dicarboxylic acid]
100 iv 0.5 mg/kg, 0.25 hr, individual
  Endothal brain concentration: BLQ
100 iv 0.5 mg/kg, 0.25 hr, individual, 0.5 mg/kg
  Endothal liver concentration: 382 ng/g
100 iv 0.5 mg/kg, 0.25 hr, mean
  Endothal brain concentration: BLQ
100 iv 0.5 mg/kg, 1 hr, individual
  Endothal brain concentration: BLQ
100 iv 0.5 mg/kg, 1 hr, individual, 0.5 mg/kg
  Endothal liver concentration: 131 ng/g
100 iv 0.5 mg/kg, 1 hr, mean
  Endothal brain concentration: BLQ
100 iv 0.5 mg/kg, 2 hr, individual
  Endothal brain concentration: BLQ
100 iv 0.5 mg/kg, 2 hr, individual, 0.5 mg/kg
  Endothal liver concentration: 273 ng/g
100 iv 0.5 mg/kg, 2 hr, mean
  Endothal brain concentration: BLQ
100 iv 0.5 mg/kg, 6 hr, individual
  Endothal brain concentration: BLQ
100 iv 0.5 mg/kg, 6 hr, individual, 0.5 mg/kg
  Endothal plasma concentration: BLQ
100 iv 0.5 mg/kg, 6 hr, mean
  Endothal brain concentration: BLQ
100 iv 0.5 mg/kg, 10 hr, individual
  Endothal brain concentration: BLQ
100 iv 0.5 mg/kg, 10 hr, mean
  Endothal brain concentration: BLQ
[1]
  Endothal brain concentration: BLQ
  Endothal plasma concentration: BLQ
100 iv 0.5 mg/kg, 24 hr, individual, 0.5 mg/kg
  Endothal liver concentration: 36.4 ng/g
100 iv 0.5 mg/kg, 24 hr, mean
  Endothal brain concentration: BLQ
  Endothal plasma concentration: BLQ
100 iv 1.0 mg/kg, 0.25 hr, individual
  Endothal brain concentration: BLQ
100 iv 1.0 mg/kg, 0.25 hr, individual, 1 mg/kg
  Endothal liver concentration: 1320 ng/g
100 iv 1.0 mg/kg, 0.25 hr, mean
  Endothal brain concentration: BLQ
100 iv 1.0 mg/kg, 1 hr, individual
  Endothal brain concentration: BLQ
100 iv 1.0 mg/kg, 1 hr, individual, 1 mg/kg
  Endothal liver concentration: 1380 ng/g and 618 ng/g
100 iv 1.0 mg/kg, 1 hr, mean
  Endothal brain concentration: BLQ
100 iv 1.0 mg/kg, 2 hr, individual
  Endothal brain concentration: BLQ
100 iv 1.0 mg/kg, 2 hr, individual, 1 mg/kg
  Endothal liver concentration: 1530 ng/g and 542 ng/g
100 iv 1.0 mg/kg, 2 hr, mean
  Endothal brain concentration: BLQ
100 iv 1.0 mg/kg, 6 hr, individual
  Endothal brain concentration: BLQ
100 iv 1.0 mg/kg, 6 hr, individual, 1 mg/kg
  Endothal liver concentration: 241 ng/g
100 iv 1.0 mg/kg, 6 hr, mean
  Endothal brain concentration: BLQ
100 iv 1.0 mg/kg, 10 hr, individual
  Endothal brain concentration: BLQ
100 iv 1.0 mg/kg, 10 hr, individual, 1 mg/kg
  Endothal liver concentration: 94.2 ng/g
100 iv 1.0 mg/kg, 10 hr, mean
  Endothal brain concentration: BLQ
100 iv 1.0 mg/kg, 24 hr, individual
  Endothal brain concentration: BLQ
100 iv 1.0 mg/kg, 24 hr, individual, 1 mg/kg
  Endothal liver concentration: 115 ng/g
100 iv 1.0 mg/kg, 24 hr, mean
  Endothal brain concentration: BLQ
100 iv 1.5 mg/kg, 0.25 hr, individual
  Endothal brain concentration: BLQ
100 iv 1.5 mg/kg, 0.25 hr, individual, 1.5 mg/kg
  Endothal liver concentration: 2160 ng/g
100 iv 1.5 mg/kg, 0.25 hr, mean
  Endothal brain concentration: BLQ
100 iv 1.5 mg/kg, 1 hr, individual
  Endothal brain concentration: BLQ
100 iv 1.5 mg/kg, 1 hr, individual, 1.5 mg/kg
  Endothal liver concentration: 2976 ng/g
100 iv 1.5 mg/kg, 1 hr, mean
  Endothal brain concentration: BLQ
100 iv 1.5 mg/kg, 2 hr, individual
  Endothal brain concentration: BLQ
100 iv 1.5 mg/kg, 2 hr, individual, 1.5 mg/kg
  Endothal liver concentration: 2226 ng/g
100 iv 1.5 mg/kg, 2 hr, mean
  Endothal brain concentration: BLQ
100 iv 1.5 mg/kg, 6 hr, individual
  Endothal brain concentration: BLQ
100 iv 1.5 mg/kg, 6 hr, individual, 1.5 mg/kg
  Endothal liver concentration: 1326 ng/g
100 iv 1.5 mg/kg, 6 hr, mean
  Endothal brain concentration: BLQ
100 iv 1.5 mg/kg, 10 hr, individual
  Endothal brain concentration: BLQ
100 iv 1.5 mg/kg, 10 hr, individual, 1.5 mg/kg
  Endothal liver concentration: 137 ng/g and 329 ng/g
100 iv 1.5 mg/kg, 10 hr, mean
  Endothal brain concentration: BLQ
100 iv 1.5 mg/kg, 24 hr, individual
  Endothal brain concentration: BLQ
100 iv 1.5 mg/kg, 24 hr, individual, 1.5 mg/kg
  Endothal liver concentration: 52.1 ng/g
100 iv 1.5 mg/kg, 24 hr, mean
  Endothal brain concentration: BLQ
After single iv 100 at 0.5, 1.0 and 1.5 mg/kg
  endothal detectable in brain samples: not detectable; also recorded: undetectable
female, SD, 0.5 mg/kg
  AUCINF: 828 ng·h/mL
  AUClast: 546 ng·h/mL
  Cmax: 577 ng/mL
  Tmax: 15 min
female, SD, 0.5 mg/kg, 100 iv 0.5 mg/kg, 0.25 hr, individual
  concentration at 0.25 h: 316 ng/g
female, SD, 0.5 mg/kg, 100 iv 0.5 mg/kg, 0.25 hr, mean
  concentration at 0.25 h: 349 ng/g
female, SD, 0.5 mg/kg, 100 iv 0.5 mg/kg, 1 hr, individual
  concentration at 1 h: 256 ng/g
female, SD, 0.5 mg/kg, 100 iv 0.5 mg/kg, 1 hr, mean
  concentration at 1 h: 194 ng/g
female, SD, 0.5 mg/kg, 100 iv 0.5 mg/kg, 2 hr, individual
  concentration at 2 h: 168 ng/g
female, SD, 0.5 mg/kg, 100 iv 0.5 mg/kg, 2 hr, mean
  concentration at 2 h: 220 ng/g
female, SD, 0.5 mg/kg, 100 iv 0.5 mg/kg, 10 hr, mean
  concentration at 10 h: 124 ng/g
female, SD, 0.5 mg/kg, 100 iv 0.5 mg/kg, 24 hr, individual
  concentration at 24 h: 32 ng/g
female, SD, 0.5 mg/kg, 100 iv 0.5 mg/kg, 24 hr, mean
  concentration at 24 h: 34.2 ng/g
female, SD, 1 mg/kg
  AUCINF: 2750 ng·h/mL
  AUClast: 2487 ng·h/mL
  Tmax: 15 min
female, SD, 1 mg/kg, 100 iv 1.0 mg/kg, 0.25 hr, individual
  concentration at 0.25 h: 768 ng/g
female, SD, 1 mg/kg, 100 iv 1.0 mg/kg, 0.25 hr, mean
  concentration at 0.25 h: 1040 ng/g
female, SD, 1 mg/kg, 100 iv 1.0 mg/kg, 1 hr, mean
  concentration at 1 h: 999 ng/g
female, SD, 1 mg/kg, 100 iv 1.0 mg/kg, 2 hr, mean
  concentration at 2 h: 1040 ng/g
female, SD, 1 mg/kg, 100 iv 1.0 mg/kg, 6 hr, individual
  concentration at 6 h: 298 ng/g
female, SD, 1 mg/kg, 100 iv 1.0 mg/kg, 6 hr, mean
  concentration at 6 h: 270 ng/g
female, SD, 1 mg/kg, 100 iv 1.0 mg/kg, 10 hr, individual
  concentration at 10 h: 151 ng/g
female, SD, 1 mg/kg, 100 iv 1.0 mg/kg, 10 hr, mean
  concentration at 10 h: 123 ng/g
female, SD, 1 mg/kg, 100 iv 1.0 mg/kg, 24 hr, individual
  concentration at 24 h: 66.6 ng/g
female, SD, 1 mg/kg, 100 iv 1.0 mg/kg, 24 hr, mean
  concentration at 24 h: 90.8 ng/g
female, SD, 1.5 mg/kg
  AUCINF: 4730 ng·h/mL
  AUClast: 4476 ng·h/mL
  Tmax: 15 min
female, SD, 1.5 mg/kg, 100 iv 1.5 mg/kg, 0.25 hr, individual
  concentration at 0.25 h: 2300 ng/g
female, SD, 1.5 mg/kg, 100 iv 1.5 mg/kg, 0.25 hr, mean
  concentration at 0.25 h: 2230 ng/g
female, SD, 1.5 mg/kg, 100 iv 1.5 mg/kg, 1 hr, individual
  concentration at 1 h: 2870 ng/g
female, SD, 1.5 mg/kg, 100 iv 1.5 mg/kg, 1 hr, mean
  concentration at 1 h: 2920 ng/g
female, SD, 1.5 mg/kg, 100 iv 1.5 mg/kg, 2 hr, individual
  concentration at 2 h: 2950 ng/g
female, SD, 1.5 mg/kg, 100 iv 1.5 mg/kg, 2 hr, mean
  concentration at 2 h: 2590 ng/g
female, SD, 1.5 mg/kg, 100 iv 1.5 mg/kg, 6 hr, individual
  concentration at 6 h: 1690 ng/g
female, SD, 1.5 mg/kg, 100 iv 1.5 mg/kg, 6 hr, mean
  concentration at 6 h: 1510 ng/g
female, SD, 1.5 mg/kg, 100 iv 1.5 mg/kg, 10 hr, mean
  concentration at 10 h: 233 ng/g
female, SD, 1.5 mg/kg, 100 iv 1.5 mg/kg, 24 hr, individual
  concentration at 24 h: 75 ng/g
female, SD, 1.5 mg/kg, 100 iv 1.5 mg/kg, 24 hr, mean
  concentration at 24 h: 63.5 ng/g
female, Sprague-Dawley, 1.5 mg/kg
  Cmax: 349 to 2960 ng/g
0.5 mg/kg
  AUCINF: 3095 ng·h/g
  AUClast: 2598 ng·h/g
1 mg/kg
  AUCINF: 7370 ng·h/g
  AUClast: 6673 ng·h/g
1.5 mg/kg
  AUCINF: 18850 ng·h/g
  AUClast: 18434 ng·h/g
